Measurements as given in patent publication US20190282616A1, “MACROPHAGES REDIRECT PHAGOCYTOSIS BY NON-PROFESSIONAL PHAGOCYTES AND INFLUENCE INFLAMMATION” (University of Virginia Patent Foundation, priority 2016, published 2019).

Assays:
[1] = tested on: SVEC-40 endothelial cells; test: In vitro engulfment assay: apoptotic thymocyte uptake by SVEC-40 cells; type: cell-based, mouse; conditions: IGF-1 treatment
Experimental: (§1) LR73, SVEC-40, BEAS-2B, and 16HBE14o-cells were seeded in a 24 well plate. Thymocytes were isolated from 4-6 week old mice and induced to undergo apoptosis with dexamethasone. Thymocytes or prepared microvesicles were then stained with either CypHer5E (GE Healthcare, PA15401) or TAMRA (Invitrogen, C-1171). LR73 and SVEC-40 cells were incubated with apoptotic thymocytes at a 1:10 phagocyte to target ratio, BEAS-2B at a 1:5 phagocyte to target ratio, and 16HBE14o—at a 1:20 phagocyte to target ratio for 2 hours. Mouse IGF-I (Sigma-Aldrich), human IGF-I (Sigma-Aldrich), human IGF-II (Sigma-Aldrich) were added to the phagocytes at the same time as addition of apoptotic targets. For IGFBP3 studies, IGFBP3 (Sigma-Aldrich) was added to media or supernatant from J774 cells for one hour to allow IGFBP3 to bind to any available IGF-I, then the mix is added to phagocytes along with apoptotic targets. […] Targets were then washed off three times with PBS, and the cells were dissociated from the plate with trypsin and the engulfment assessed by flow cytometry.

LR73 cells = test: In vitro engulfment assay: apoptotic thymocyte uptake by LR73 cells; type: cell-based, hamster; conditions: LR73 cells pretreated with IGF-I, washed
[2] = tested on: IGF-1R and Akt phosphorylation in macrophages; test: Immunoblotting of IGF-1R and Akt phosphorylation in macrophages; type: cell-based; conditions: 100 ng/mL mouse IGF-1
Experimental: LR73, J774, or BEAS-2B cells were seeded in a 60 mm dish at a concentration of 5×10^5. Cells were serum-starved for 6 hours and then stimulated with 100 ng/mL of IGF-1 for various time points. Cells were lysed in RIPA buffer and used in Western blots. The blots were probed for phospho-Erk1/2 (Cell Signaling Technology, #4370), phospho-Akt (Cell Signaling Technology, #4060), phospho-IGF-1R (Cell Signaling, #3024), total Erk2 (Santa Cruz Biotechnology, #sc-154-G), total Akt (Cell Signaling Technology, #4691), total IGF-1R (Cell Signaling, #9750), and anti-B-actin-HRP (Sigma-Aldrich, #A3854) followed by chemiluminescence detection.

BEAS-2B cells [3] = test: Uptake of alveolar macrophage derived microvesicles by BEAS-2B cells; type: cell-based, human; conditions: IGF-1 100 ng/mL
Experimental: MH-S, mouse alveolar macrophages, or primary mouse alveolar macrophages were seeded. After adherence, the media was replaced with 0.22 μm filtered media to remove any contaminating microvesicles. After an overnight incubation, the supernatant was harvested and spun at 5000×g to remove cell debris and apoptotic bodies. The pellet was discarded and the resulting supernatant was filtered through 0.8 μm filter and spun again at 17,000×g. The pelleted microvesicles were then washed with HBSS and then spun again at 17,000×g. For engulfment assays, microvesicles were stained with TAMRA for 20 minutes and then added to BEAS-2B cells for 90 minutes. For flow cytometry, purified particles were stained with CD11c, Siglec F, and Annexin V (BD Biosciences, Cat. No. 550475) and processed on Imagestream™ imaging flow cytometer (Amnis). Microvesicle size distribution was characterized using qNano (IZON Science) with a NP400 membrane and at least 500 particles were counted. Microvesicles were prepared for cryo-electron microscopy using standard methods and imaged on an FEI TF20.

BEAS-2B cells [4] = test: In vitro engulfment assay: apoptotic cell uptake by BEAS-2B cells; type: cell-based; conditions: human IGF-I
Experimental: as §1

insulin-like growth factor I [IGF-1]
apoptotic thymocyte uptake by SVEC-40 cells [1]: engulfment dampening effect of IGF-1 was also seen
engulfment after washing phagocytes pre-treated with IGF-1 (reversibility) (LR73 cells): near complete restoration of engulfment
early signaling in macrophages (IGF-1R and Akt phosphorylation) [2]: initiated early signaling in macrophages
uptake of microvesicles by BEAS-2B airway epithelial cells (BEAS-2B cells [3]): enhanced by IGF-1
apoptotic cell uptake by BEAS-2B cells (BEAS-2B cells [4]): engulfment dampening effect of IGF-1 was also seen
